How the values were obtained:
[1] = molecular target: Vascular endothelial growth factor receptor 2 (Homo sapiens, UniProt P35968); assay: Selectivity interaction (KinomeScan (DiscoverX)) EUB0000092b KDR; details: at 10 µM
[2] = molecular target: Phosphatidylinositol 4-phosphate 3-kinase C2 domain-containing subunit alpha (Homo sapiens) (UniProt O00443); assay: Selectivity interaction (ProQinase) EUB0000171b PIK3C2A
[3] = molecular target: T1, Muscarinic acetylcholine receptor M2 (Homo sapiens) (UniProt P08172); assay: Selectivity interaction (Panel of kinases, GPCRs, ion channels and transporters (enzymatic assay)) EUB0000266bCl CHRM2
T1 sequence (whole entry): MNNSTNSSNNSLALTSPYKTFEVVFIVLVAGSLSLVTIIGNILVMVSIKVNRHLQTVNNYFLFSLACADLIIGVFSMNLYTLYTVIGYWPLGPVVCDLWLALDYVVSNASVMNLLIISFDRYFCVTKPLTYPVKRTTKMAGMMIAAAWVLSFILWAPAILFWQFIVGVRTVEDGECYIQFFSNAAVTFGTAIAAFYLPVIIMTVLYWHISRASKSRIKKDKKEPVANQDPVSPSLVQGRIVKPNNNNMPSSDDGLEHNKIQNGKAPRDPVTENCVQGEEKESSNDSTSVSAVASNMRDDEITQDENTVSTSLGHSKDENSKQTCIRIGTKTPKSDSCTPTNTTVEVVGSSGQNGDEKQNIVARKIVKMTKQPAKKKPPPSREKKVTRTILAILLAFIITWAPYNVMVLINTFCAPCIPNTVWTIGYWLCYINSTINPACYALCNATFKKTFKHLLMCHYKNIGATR

[4] = molecular target: Macrophage colony-stimulating factor 1 receptor (Homo sapiens) (UniProt P07333); assay: Selectivity interaction (KinomeScan (DiscoverX)) EUB0001079a CSF1R; details: at 1 µM
[5] = molecular target: Serine/threonine-protein kinase 38 (Homo sapiens) (UniProt Q15208); assay: Selectivity interaction (KinomeScan (DiscoverX)) EUB0001079a STK38; details: at 1 µM
[6] = molecular target: T2, Myotonin-protein kinase (Homo sapiens) (UniProt Q09013); assay: Selectivity interaction (KinomeScan (DiscoverX)) EUB0000666a DMPK; details: at 10 µM
T2 sequence (whole entry): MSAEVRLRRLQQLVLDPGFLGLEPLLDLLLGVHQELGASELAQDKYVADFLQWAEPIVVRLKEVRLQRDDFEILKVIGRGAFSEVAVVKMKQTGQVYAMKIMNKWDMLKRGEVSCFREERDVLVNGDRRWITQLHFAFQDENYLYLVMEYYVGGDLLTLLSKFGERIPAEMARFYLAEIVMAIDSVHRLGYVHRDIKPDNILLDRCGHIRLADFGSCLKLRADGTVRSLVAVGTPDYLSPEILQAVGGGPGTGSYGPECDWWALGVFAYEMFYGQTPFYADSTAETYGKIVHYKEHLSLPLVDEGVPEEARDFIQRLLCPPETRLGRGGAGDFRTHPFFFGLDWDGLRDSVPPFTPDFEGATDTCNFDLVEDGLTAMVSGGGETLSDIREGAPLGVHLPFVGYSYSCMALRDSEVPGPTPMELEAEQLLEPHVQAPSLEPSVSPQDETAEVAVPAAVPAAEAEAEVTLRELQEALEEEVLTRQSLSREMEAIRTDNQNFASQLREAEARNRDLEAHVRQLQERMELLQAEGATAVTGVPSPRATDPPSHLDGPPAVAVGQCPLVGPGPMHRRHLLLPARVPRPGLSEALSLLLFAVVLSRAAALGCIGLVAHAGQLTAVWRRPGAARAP

[7] = molecular target: T3, Receptor-interacting serine/threonine-protein kinase 4 (Homo sapiens) (UniProt P57078); assay: Selectivity interaction (KinomeScan (DiscoverX)) EUB0001049a RIPK4; details: at 1 µM
T3 sequence (whole entry): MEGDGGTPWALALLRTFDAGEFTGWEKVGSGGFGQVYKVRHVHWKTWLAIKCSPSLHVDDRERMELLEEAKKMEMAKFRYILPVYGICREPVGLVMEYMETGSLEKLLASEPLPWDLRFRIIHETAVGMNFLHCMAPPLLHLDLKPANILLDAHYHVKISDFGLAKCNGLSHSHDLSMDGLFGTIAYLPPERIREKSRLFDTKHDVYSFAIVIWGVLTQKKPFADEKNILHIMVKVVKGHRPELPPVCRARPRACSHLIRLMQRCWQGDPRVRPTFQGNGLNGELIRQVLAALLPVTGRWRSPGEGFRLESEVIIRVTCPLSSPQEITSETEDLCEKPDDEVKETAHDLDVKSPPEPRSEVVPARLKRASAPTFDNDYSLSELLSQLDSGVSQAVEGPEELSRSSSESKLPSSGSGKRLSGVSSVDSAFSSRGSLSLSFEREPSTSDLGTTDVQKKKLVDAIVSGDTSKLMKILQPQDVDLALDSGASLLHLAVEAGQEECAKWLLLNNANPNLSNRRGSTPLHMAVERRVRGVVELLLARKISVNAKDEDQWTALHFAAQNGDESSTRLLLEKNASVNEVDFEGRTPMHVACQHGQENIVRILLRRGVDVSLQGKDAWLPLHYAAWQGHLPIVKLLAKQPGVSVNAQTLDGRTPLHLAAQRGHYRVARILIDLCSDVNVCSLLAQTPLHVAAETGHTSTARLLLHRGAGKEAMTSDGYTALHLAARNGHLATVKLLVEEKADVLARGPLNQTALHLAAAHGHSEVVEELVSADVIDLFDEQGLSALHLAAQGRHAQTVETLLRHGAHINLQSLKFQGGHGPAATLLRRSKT

[8] = molecular target: T4, cAMP-dependent protein kinase catalytic subunit PRKX (Homo sapiens) (UniProt P51817); assay: Selectivity interaction (KinomeScan (DiscoverX)) EUB0000695a PRKX; details: at 100 nM
T4 sequence (whole entry): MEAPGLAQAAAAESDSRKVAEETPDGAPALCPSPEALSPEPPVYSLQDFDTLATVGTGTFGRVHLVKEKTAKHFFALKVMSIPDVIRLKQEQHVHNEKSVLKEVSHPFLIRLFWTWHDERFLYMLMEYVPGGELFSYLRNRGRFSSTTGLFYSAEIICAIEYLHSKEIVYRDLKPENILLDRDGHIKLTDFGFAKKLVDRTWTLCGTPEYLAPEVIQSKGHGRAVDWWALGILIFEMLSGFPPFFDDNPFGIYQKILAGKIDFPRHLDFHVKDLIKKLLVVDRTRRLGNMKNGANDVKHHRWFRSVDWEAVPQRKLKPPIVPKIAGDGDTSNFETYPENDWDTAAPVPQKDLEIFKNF

[9] = molecular target: Glycogen synthase kinase-3 alpha (Homo sapiens, UniProt P49840); assay: Selectivity interaction (KinomeScan (DiscoverX)) EUB0000618a GSK3A; details: at 10 µM
Sequence of Glycogen synthase kinase-3 alpha (P49840 2-483 limits assumed): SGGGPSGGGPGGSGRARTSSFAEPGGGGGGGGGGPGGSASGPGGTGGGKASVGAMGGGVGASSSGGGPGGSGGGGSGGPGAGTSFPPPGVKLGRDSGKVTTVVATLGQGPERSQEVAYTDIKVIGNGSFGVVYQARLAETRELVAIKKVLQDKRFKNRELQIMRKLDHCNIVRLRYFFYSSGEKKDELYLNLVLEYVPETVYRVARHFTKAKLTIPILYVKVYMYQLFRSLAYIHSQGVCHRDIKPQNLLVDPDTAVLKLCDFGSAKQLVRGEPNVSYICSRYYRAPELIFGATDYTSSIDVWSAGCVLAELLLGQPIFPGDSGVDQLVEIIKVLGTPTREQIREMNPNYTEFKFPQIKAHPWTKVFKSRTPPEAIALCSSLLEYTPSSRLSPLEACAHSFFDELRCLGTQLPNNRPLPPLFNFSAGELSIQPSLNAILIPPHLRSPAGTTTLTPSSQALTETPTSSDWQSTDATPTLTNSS

Sequence of Phosphatidylinositol 4-phosphate 3-kinase C2 domain-containing subunit alpha (Homo sapiens) (O00443 whole entry, the tested form may be a part): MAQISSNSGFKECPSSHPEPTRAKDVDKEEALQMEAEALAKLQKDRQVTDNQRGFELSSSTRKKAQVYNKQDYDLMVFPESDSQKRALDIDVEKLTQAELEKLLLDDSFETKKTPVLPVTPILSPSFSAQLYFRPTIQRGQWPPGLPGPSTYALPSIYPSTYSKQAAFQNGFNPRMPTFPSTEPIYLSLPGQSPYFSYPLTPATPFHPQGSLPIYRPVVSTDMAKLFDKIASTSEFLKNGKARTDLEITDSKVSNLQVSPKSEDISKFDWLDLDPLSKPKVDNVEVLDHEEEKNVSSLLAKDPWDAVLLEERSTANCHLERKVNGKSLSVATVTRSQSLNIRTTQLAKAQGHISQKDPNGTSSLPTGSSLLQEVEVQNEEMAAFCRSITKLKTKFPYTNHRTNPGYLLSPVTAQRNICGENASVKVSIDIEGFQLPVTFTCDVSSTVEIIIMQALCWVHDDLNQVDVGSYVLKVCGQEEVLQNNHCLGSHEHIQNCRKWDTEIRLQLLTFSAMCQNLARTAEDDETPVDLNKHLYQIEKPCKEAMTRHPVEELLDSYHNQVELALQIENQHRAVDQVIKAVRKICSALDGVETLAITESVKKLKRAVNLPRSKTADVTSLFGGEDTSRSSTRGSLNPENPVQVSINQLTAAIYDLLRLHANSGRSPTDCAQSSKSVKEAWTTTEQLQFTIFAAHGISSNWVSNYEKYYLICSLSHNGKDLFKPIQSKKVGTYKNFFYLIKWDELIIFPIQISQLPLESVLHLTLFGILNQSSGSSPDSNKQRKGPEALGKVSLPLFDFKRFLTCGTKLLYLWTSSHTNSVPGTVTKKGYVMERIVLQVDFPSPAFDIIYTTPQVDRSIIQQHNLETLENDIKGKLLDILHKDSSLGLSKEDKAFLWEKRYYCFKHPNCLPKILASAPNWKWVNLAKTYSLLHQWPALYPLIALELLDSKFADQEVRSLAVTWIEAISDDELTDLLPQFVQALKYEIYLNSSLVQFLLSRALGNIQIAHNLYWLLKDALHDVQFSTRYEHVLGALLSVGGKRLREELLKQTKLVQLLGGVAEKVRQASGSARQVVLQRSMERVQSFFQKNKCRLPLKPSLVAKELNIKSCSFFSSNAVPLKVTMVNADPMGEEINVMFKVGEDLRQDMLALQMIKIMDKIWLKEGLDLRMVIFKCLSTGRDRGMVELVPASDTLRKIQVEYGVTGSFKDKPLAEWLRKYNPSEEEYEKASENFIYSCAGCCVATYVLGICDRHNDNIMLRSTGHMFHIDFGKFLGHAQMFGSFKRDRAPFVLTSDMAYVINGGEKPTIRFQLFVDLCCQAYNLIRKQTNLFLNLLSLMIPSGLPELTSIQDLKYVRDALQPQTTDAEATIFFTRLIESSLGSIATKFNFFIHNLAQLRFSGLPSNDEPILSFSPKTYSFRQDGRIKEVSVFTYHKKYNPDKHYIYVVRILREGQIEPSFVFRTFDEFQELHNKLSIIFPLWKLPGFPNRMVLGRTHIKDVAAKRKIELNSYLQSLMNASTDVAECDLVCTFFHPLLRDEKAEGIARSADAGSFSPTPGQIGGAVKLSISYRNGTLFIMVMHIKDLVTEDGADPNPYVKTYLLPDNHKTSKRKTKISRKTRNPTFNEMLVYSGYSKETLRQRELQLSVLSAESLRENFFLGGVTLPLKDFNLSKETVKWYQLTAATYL
Sequence of Macrophage colony-stimulating factor 1 receptor (Homo sapiens) (P07333 whole entry): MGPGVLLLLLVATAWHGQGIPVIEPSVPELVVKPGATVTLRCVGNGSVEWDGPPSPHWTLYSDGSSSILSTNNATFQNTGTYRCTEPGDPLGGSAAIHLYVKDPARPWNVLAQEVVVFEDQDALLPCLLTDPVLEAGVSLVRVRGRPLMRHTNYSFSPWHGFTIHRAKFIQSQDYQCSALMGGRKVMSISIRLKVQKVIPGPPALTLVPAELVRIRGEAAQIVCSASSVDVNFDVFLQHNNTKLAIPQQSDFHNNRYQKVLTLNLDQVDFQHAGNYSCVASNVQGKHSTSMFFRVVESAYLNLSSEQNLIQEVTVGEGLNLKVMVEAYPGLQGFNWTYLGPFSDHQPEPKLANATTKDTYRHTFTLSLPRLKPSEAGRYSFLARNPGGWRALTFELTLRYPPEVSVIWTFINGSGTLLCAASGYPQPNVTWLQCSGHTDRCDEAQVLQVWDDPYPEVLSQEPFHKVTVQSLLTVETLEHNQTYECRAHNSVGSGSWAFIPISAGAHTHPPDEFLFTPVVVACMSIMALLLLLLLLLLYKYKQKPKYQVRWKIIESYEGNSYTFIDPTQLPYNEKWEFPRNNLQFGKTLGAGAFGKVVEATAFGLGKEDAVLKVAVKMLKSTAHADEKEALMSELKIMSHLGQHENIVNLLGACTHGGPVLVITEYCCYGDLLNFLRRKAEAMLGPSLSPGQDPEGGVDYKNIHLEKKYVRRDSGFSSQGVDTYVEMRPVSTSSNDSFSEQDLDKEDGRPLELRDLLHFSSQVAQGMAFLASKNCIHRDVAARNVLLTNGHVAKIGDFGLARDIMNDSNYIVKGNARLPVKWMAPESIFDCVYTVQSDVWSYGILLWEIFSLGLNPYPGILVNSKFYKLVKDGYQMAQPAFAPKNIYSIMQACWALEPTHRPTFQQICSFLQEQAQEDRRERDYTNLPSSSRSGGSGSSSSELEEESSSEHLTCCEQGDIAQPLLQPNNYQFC
Sequence of Serine/threonine-protein kinase 38 (Homo sapiens) (Q15208 2-465 limits assumed): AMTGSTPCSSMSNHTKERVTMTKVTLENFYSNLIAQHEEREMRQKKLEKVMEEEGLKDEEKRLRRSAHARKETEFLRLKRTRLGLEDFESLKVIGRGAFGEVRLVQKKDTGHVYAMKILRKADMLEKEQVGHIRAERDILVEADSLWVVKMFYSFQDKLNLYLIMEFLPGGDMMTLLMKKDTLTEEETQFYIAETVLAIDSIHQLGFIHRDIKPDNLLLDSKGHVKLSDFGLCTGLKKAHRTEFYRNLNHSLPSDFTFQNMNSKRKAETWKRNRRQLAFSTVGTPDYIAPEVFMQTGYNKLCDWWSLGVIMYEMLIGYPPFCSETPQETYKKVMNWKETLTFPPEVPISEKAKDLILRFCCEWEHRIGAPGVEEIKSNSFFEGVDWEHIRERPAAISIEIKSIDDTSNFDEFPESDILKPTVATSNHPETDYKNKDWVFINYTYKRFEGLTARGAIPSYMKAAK
Sequence of Vascular endothelial growth factor receptor 2 (P35968 whole entry, the tested form may be a part): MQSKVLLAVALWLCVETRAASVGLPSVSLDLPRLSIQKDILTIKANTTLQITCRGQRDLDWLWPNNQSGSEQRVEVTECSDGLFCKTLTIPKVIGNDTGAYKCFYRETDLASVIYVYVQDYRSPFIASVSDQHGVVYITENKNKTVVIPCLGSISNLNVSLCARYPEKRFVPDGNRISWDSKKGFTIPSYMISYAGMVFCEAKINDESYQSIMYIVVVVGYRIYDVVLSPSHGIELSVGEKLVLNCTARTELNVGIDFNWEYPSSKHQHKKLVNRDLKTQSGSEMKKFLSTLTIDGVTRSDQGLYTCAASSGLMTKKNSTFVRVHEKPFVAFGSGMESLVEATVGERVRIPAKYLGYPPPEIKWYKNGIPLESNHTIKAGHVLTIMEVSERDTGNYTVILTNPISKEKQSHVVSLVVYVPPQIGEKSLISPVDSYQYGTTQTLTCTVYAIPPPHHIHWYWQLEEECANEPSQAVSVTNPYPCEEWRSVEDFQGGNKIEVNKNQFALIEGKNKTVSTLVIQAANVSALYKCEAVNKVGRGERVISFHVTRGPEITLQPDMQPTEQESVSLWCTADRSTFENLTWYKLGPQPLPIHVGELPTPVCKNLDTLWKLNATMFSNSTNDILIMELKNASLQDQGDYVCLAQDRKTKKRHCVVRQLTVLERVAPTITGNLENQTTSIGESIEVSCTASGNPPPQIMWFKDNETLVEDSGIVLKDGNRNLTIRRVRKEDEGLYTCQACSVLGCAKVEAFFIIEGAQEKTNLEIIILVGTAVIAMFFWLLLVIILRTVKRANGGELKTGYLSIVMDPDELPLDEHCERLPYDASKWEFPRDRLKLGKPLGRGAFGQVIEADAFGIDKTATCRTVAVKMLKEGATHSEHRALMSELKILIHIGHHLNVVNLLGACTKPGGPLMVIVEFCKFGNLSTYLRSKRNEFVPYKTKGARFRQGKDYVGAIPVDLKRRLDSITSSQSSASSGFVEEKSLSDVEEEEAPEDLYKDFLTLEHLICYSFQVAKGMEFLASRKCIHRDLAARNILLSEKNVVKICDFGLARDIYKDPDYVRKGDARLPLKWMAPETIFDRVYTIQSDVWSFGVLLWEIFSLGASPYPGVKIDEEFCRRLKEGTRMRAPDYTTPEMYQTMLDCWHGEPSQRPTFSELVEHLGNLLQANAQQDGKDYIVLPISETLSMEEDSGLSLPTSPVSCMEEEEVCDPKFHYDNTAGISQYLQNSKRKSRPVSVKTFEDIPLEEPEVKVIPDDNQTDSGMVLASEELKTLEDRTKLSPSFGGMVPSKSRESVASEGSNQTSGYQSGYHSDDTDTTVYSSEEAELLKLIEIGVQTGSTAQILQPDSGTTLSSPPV

CCC(=O)N1CCN(c2ccc(-n3c(=O)ccc4cnc5ccc(-c6cnc7ccccc7c6)cc5c43)cc2C(F)(F)F)CC1
% of control [1]: 65%

C=CC(=O)Nc1cccc(C(=O)Nc2ccc(Nc3cc(-c4[nH]c(SC)nc4C)ccn3)cc2)c1
% of control ([2]; at 1 µM): 189% | % of control ([2]; at 5 µM): 183%

CCn1c(-c2nc3cc(C(=O)N4CCCC(N)C4)ccc3n2C)cc2ccccc21 (stereo not given)
pXC50 [3]: < 4.8 M

Nc1cnc(N2CCc3cc(S(=O)(=O)Nc4c(F)cc(Cl)cc4F)cc(N4CCCC4=O)c32)nc1 [TP-020n]
% of control [4]: 100% | % of control [5]: 99%

O=C(NOC[C@H](O)CO)c1ccc(F)c(F)c1Nc1ccc(I)cc1F
% of control [6]: 90%

COc1cc(Nc2nc(C)cc(-c3cnn4nc(OC)ccc34)n2)cc(C(F)(F)F)c1
% of control [7]: 89%

Cc1cc(F)c(C(=O)Nc2cccc(-c3nncn3C(C)C)n2)cc1-n1cnc(C2CC2)c1
% of control [8]: 100%

O[C@H]1CC[C@H](Nc2ncc3nc(Nc4c(F)cc(F)cc4F)n([C@H]4CCOC4)c3n2)CC1
% of control [9]: 90%

Source: ChEMBL document CHEMBL5465560, “Selectivity Literature for EUbOPEN Chemogenomic Library” (2024)
